pIC50: −log10 of the molar value. Read-outs that look alike come from different tables or passages of the source.

The target of assay [1] is T1, hCBS (Homo sapiens, UniProt P35520).
T1 construct: made in house
T1 sequence (P35520 1-551): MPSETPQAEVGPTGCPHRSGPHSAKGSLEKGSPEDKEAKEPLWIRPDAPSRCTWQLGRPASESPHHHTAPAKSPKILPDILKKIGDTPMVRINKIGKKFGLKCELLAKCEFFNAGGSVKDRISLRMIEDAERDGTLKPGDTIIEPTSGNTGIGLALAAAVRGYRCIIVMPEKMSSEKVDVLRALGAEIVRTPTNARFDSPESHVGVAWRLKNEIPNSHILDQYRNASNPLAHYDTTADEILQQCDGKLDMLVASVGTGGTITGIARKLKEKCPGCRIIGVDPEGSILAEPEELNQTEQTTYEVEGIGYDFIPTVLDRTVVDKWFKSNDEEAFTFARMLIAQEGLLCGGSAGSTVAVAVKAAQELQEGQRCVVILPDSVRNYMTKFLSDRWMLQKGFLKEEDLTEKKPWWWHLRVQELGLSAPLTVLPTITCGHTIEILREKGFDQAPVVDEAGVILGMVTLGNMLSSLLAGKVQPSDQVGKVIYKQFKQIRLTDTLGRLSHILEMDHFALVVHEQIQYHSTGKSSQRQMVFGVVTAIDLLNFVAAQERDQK
The experiment in a line: High-throughput screening of hCBS enzymatic reaction inhibitors (H2S detection with DTNB in microwell plate). It is filed as biochemical.

In assay [2] the target is T2, hDDC (Homo sapiens, UniProt P20711).
T2 construct: made in house
T2 sequence (P20711 1-480): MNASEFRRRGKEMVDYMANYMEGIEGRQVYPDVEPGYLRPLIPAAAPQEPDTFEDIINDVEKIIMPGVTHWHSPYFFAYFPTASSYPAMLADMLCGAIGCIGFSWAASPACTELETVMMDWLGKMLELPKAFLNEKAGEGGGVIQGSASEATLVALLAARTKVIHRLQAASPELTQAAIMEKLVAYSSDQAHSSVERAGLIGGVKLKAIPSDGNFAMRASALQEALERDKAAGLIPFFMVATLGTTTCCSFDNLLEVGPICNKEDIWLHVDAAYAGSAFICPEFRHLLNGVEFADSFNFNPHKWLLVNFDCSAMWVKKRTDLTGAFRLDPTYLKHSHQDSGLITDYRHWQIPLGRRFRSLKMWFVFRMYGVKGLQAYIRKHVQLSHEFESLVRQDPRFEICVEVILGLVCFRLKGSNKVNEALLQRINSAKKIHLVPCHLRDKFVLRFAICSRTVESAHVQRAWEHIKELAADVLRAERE
In words: IC50 to hDDC (specificity test, coupled enzyme assay). The assay is classed as biochemical. The procedure: By referring to the experiment method in Assay Drug Dev Technol. […] Smithson, IC50 of the 9 compounds to hDDC was determined.

[3] abbreviates: 100 nM hCBS, 4 mM L-Cys, 4 mM D,L-HCys, pH 8.6, 60 min at 37° C., read-out: IC50 to hCBS.

One may read the pIC50 as −log10 of the IC50, conventionally taken in molar units. For the molecule `CCCCCCCCCCCCCCCC[N+](C)(C)CCN(Cc1ccc(OC)cc1)c1ncccn1` [Compound 2], the negative logarithm of the IC50 (pIC50) in assay [1] (setting [3]) was 5.10; in assay [2] (read-out: IC50 to hDDC) it was 4.80.

For `CCN(CC)c1ccc(C(=C2C=CC(=[N+](CC)CC)C=C2)c2ccc(N(CC)CC)cc2)cc1` [Compound 3], the negative-log IC50 (pIC50) in assay [1] (setting [3]) was 4.82; in assay [2] (read-out: IC50 to hDDC) it was 4.60.

As for `CC1CCN(C2=C(Cl)C(=O)c3ccccc3C2=O)CC1` [Compound 5], the negative logarithm of the IC50 (pIC50) in assay [1] (setting [3]) was 4.70; in assay [2] (read-out: IC50 to hDDC), 3.52. Take `COc1ccc2c(NCCCCCCNc3c4ccccc4nc4cc(OC)ccc34)c3ccccc3nc2c1` [Compound 6]: the values for the pIC50 in assay [1] (setting [3]) and in assay [2] (read-out: IC50 to hDDC) were 4.52 and 3.96, respectively.

Take `N=C(N)NCCCS(=O)(=O)Nc1ccc(Nc2c3ccccc3nc3cc([N+](=O)[O-])ccc23)cc1` [Compound 7]: the pIC50 was 4.40 in assay [1] (setting [3]) and 4.22 in assay [2] (read-out: IC50 to hDDC).

Take `C/C1=C2/[N]([Co][OH])[C@H]([C@H](CC(N)=O)[C@@]2(C)CCC(=O)NC[C@@H](C)OP(=O)(O)OC2[C@@H](CO)O[C@H](n3cnc4cc(C)c(C)cc43)[C@H]2O)[C@]2(C)N=C(/C(C)=C3N=C(/C=C4N=C1[C@@H](CCC(N)=O)C\4(C)C)[C@@H](CCC(N)=O)[C@]\3(C)CC(N)=O)[C@@H](CCC(N)=O)[C@]2(C)CC(N)=O` (stereo partly shown) [Compound 8, Hydroxocobalamin, reference compound]: the pIC50 in assay [1] was 4.46; in assay [2], 3.82.

As for `Cn1ncnc2c(=O)n(C)c(=O)nc1-2` [Compound 9], in assay [1] (setting [3]), the negative-log IC50 (pIC50) is 4.92.

The values are drawn from patent US20160348148A1, “MICROWELL PLATE FOR HIGH-THROUGHPUT DETECTION AND APPLICATION THEREOF” (SHANGHAI JIAOTONG UNIVERSITY, priority 2013, published 2016).
